In a melting point compilation (Tetko et al.; mined from patent text by program, amines drawn as free bases though some values may be those of a salt) one finds melting point data, which are given here for 63 compounds.

What is called melting point is the temperature of the solid-liquid transition. Compound `CN(C)CC1CCc2cc(NC(=O)N3CCC(c4ccc(F)cc4)CC3)ccc2C1O` (stereo not drawn) displayed a melting point of 160 to 163 °C. With `O=C1NCC(Cc2ccc(Br)cc2)O1` (stereo not drawn), the melting point lay within 115 to 117 °C. As to `O=C(O)Cc1ccc2c(c1)C(=O)c1cc3ccccc3cc1C2=O`, the melting point was over 220 °C.

For `Cc1cc(C)cc(C(=O)NC(C#N)n2cccn2)c1` (stereo not drawn), the melting point lay within 180 to 183 °C. Take `CCOC(=O)COc1ccc(CN2C(=O)C3(COc4cc5c(cc43)CCO5)c3ccccc32)cc1` (stereo not drawn): the melting point was in the range of 158 to 159 °C. For the compound `O=C1CCC(N2Cc3c(CNC(=O)c4ccccc4)cccc3C2=O)C(=O)N1` (stereo not drawn), the melting point was in the range of 228 to 230 °C. With `C=C(Cn1ccnc1)c1ccccc1O`, the melting point was 139 to 141 °C. Next, `CC(=O)OC1=C(c2nnn(Cc3ccccc3)n2)N(C)S(=O)(=O)c2ccccc21`: 173 °C. Compound `CCn1c(C(c2ccccc2)c2ccccc2)nc(-c2ccncc2)c1-c1ccc(Cl)cc1` registered a melting point of 199 to 200 °C. For the compound `C#C[C@@]1(O)[C@@H](COC(=O)c2ccc(Cl)cc2)OC(O)[C@@H]1O` (stereo partly drawn), the melting point lay in the range of 116 to 118 °C. In the case of `CC1CC(=Cc2ccccc2)c2nc3cc(N)ccc3c(=O)n21` (stereo not drawn) it was 239 to 241 °C; in that of `COc1ccc(C(=O)c2ccc(NC(C)=O)cc2)cc1`, 160 to 162 °C. `CC1CCc2c(N3CCN(S(=O)(=O)C(F)(F)F)CC3)c(Cl)cc3c(=O)c(C(=O)O)cn1c23` (stereo not drawn) gave a melting point of 232 to 235 °C. In the case of `Nc1ncnc2c1ncn2OCC(CO)SCP(=O)(O)O` (stereo not drawn) it was 195 to 197 °C; in that of `CC1(C)C(=O)Nc2ccc(-c3ccc([N+](=O)[O-])s3)cc21`, 223 to 225 °C; in that of `Cc1ccc([N+](=O)[O-])cc1S(=O)(=O)N1CCOCC1`, 114 to 115 °C. For the compound `CC(=O)Oc1c(C)c(C)c2c(c1C)CCC(C)(CCBr)O2` (stereo not drawn), the melting point lay in the range of 102 to 103 °C. Consider `CC(C)C[C@H](C(=O)OCc1ccccc1)N1CC[C@]2(CCCN2C(=O)C(C)C)C1=O`, for which the melting point came to 87 °C. Compound `COC(=O)C1=C(C)NC(C)=C(C(=O)OCCc2ccc(O)cc2)C1c1cccc([N+](=O)[O-])c1` (stereo not drawn) came in with a melting point of 107 to 109 °C. In the case of `O=C1C=C(C(=O)c2ccccc2[N+](=O)[O-])CC(c2ccccc2)N1` (stereo not drawn) it was 139 to 141 °C; in that of `C/C(=C\c1ccncc1)c1ccc2c(c1)C(C)(C)CCC2(C)C`, 84 to 85 °C. In the case of `C[C@@H]1C[C@H](OC(=O)C(C)(C)Oc2ccc(C(=O)c3ccc(Cl)cc3)cc2)CC(C)(C)C1` (relative stereo) it was 65 °C; in that of `CON=C(C(=O)OC)c1ccccc1COc1ccc(C(C)=NOCc2ccccc2)cc1`, 104 to 106 °C; in that of `CCN1CC(O)CC1=O` (stereo not drawn), 53 to 54 °C.

On to `CC(Oc1ccccc1[N+](=O)[O-])C(=O)NCCO[N+](=O)[O-]` (stereo not drawn), for which the melting point lay in the range of 65 to 67 °C. Next, `CC(=O)Nc1nc(CCc2ccc(N)cc2)c(C(=O)Nc2ccccc2)s1`: 104 to 105 °C; `CCOC(=O)c1cc(-c2ccccc2)nc2c([N+](=O)[O-])cccc12`: 138 to 140 °C. On to `O=C(O)CCCCCn1c2ccccc2c(=O)c2ccccc21`, for which the melting point was determined as 167 °C. In the case of `O=C(NCc1ccc(Cl)cc1)c1cnc2c(F)cc(-c3cc(Br)cs3)cc2c1O` it was 281 to 283 °C. Consider `COC(=O)C#Cc1cccc(C(=O)OC)c1`, for which the melting point lay in the range of 96 to 97 °C. Next, `O=C(Nc1ccc2ccc(Oc3ccccc3)nc2n1)c1cccc(Br)c1`: 194 °C; `O=C(CCN1CCC(C(O)(c2ccc(F)cc2)c2ccc(F)cc2)CC1)N(c1ccccc1)c1ccccc1`: 160 to 162 °C. In the case of `CCC(=O)c1ccc(OCCCCCCCc2cc(C)no2)cc1` it was 61 °C. In the case of `OC1CCN(c2ccccc2)C12CCNCC2` (racemic) it was 141 to 144 °C. In the case of `CN(c1nc(-c2cc3ccccc3[nH]c2=O)cs1)S(=O)(=O)c1cn(C)cn1`, the melting point is over 300 °C. Take `CC(C)Nc1cccnc1N1CCN(C(=O)c2ccc(C(=O)N(CCO)CCO)cn2)CC1`: the melting point was 130 to 132 °C.

Turning to `O=C(CO)NCc1ccc2ccn(C3CCN(CCc4ccc(F)cc4)CC3)c2c1`, the melting point is 76 to 78 °C.

As to `CN(C)C(=O)Nc1ccc(OS(C)(=O)=O)c(Cl)c1`, the melting point is 130 to 132 °C. In the case of `O=C(O)Cc1cccc(C(=O)c2cccs2)c1Cl` it was 112 °C; in that of `Cc1cc([N+](=O)[O-])cc(C)c1-c1ccc(-c2c(C)cc([N+](=O)[O-])cc2C)o1`, 156 to 158 °C. Consider `O=C(N[C@H]1CSc2ccc(C(F)(F)F)cc2NC1=O)OCc1ccccc1`, for which the melting point lay in the range of 120 to 123 °C. The compound `CCOC(=O)c1cnn(-c2ccc(OCC3CC3)c(C#N)c2)c1` showed a melting point of 147 to 149 °C.

In the case of `CC(=O)OC1CCC2(C)C(CCC3C2CCC2(C)C(C(=O)C=[N+]=[N-])CCC32)C1` (stereo not drawn), the melting point is 135 to 136 °C. In turn, `O=Cc1ccc2oc3ncccc3c(=O)c2c1` came in with a melting point of 233 to 235 °C. Consider `C=C(C)C(=O)OCCCCc1cc(-c2ccc(OC(=O)C(=C)C)cc2)ccc1OC(=O)C(=C)C`, for which the melting point came out at 76 °C. Take `CC(C)N1C(=O)C(C(N)=O)N(c2cc(Cl)cc(Cl)c2)C1=O` (stereo not drawn): the melting point came to 200 °C. Next, `CNC(=S)NCCCSc1nc(C)co1`: 73 to 74 °C; `CCn1c(=O)[nH]c2c(C)nn(CC)c2c1=O`: 208 to 209 °C; `Cn1c(Br)c(Br)c(C#N)c1Br`: 151 to 152 °C. In the case of `CCc1ccc(Nc2c(-c3nnc(NCCNC)o3)ccc(F)c2F)c(F)c1` it was 154 to 157 °C. Next, `CC1CCC(CCC(=O)O)(CCC(=O)O)C(=O)C1(CCC(=O)O)CCC(=O)O` (stereo not drawn): 210 to 213 °C; `CC(=O)OCC(=O)NCc1ccc(-c2csc(N)n2)s1`: 149 to 150 °C; `CC#CN(C(C)=O)c1nc2ccccc2s1`: 138 to 139 °C. Consider `Oc1ccc(O)c(C(F)(F)F)c1`, for which the melting point fell in the range of 114 to 115 °C.

The compound `CCCCCC(=O)OC(C)OC1=C(C(=O)Nc2ccccn2)N(C)S(=O)(=O)c2ccccc21` (stereo not drawn) registered a melting point of 62 to 65 °C. In the case of `O=C1NC(=O)c2c1cc(-c1ccccc1)c1[nH]c3ccc(O)cc3c21` it was 335 to 345 °C; in that of `Cc1cc(SC2=C(O)C[C@@](CCc3ccc(O)cc3)(C(C)C)OC2=O)c(C(C)C)c2sc(N)nc12`, 232 to 234 °C. Next, `CCOC(=O)C(NC(C)=O)(C(=O)OCC)C1=Nc2ccc(Br)cc2C(c2ccccn2)=NC1`: 178 to 180 °C; `O=C(O)CC(NC(=O)OCc1ccccc1)C(=O)CON1C(=O)Cc2ccccc21` (stereo not drawn): 58 to 70 °C. In the case of `Oc1c(Cl)cc(Cl)cc1CNc1cnsn1` it was 131 to 132 °C; in that of `COc1ccc(CC(=O)NCCc2cc3c(cc2C)CCC3)cc1OC`, 144 to 145 °C. In turn, `O=C1OC(=O)C2=C1SCC(c1ccccc1)S2` (stereo not drawn) came in with a melting point of 131 to 133 °C. Compound `CC(C)COC(=O)N[C@H](CCCNC(=O)OCc1ccccc1)C(=O)NCc1ccc(CC(N)=O)cc1` had a melting point of 145 °C.
